Data set [1] has as its system Chikungunya virus. The experiment in a line: Antiviral activity against Chikungunya virus infected in HEK293T cells assessed as reduction in infectious virus particle production by luciferase reporter gene assay. In kind it is functional, organism-based. The note with it: HEK-293T. For orientation: A reporter such as luciferase makes a cellular process visible.
Data set [2] concerns Chikungunya virus. Briefly: Antiviral activity against Chikungunya virus SGP011 by qRT-PCR analysis. In kind it is functional, organism-based.
Data set [3] concerns Chikungunya virus. Briefly: Antiviral activity against Chikungunya virus 899 infected in African green monkey BGM cells assessed as reduction in viral infectious progeny after 48 hrs by titration assay. In kind it is functional, organism-based. As to conditions: Chikungunya virus, 899, BGM.
Data set [4] relates to Chikungunya virus. Briefly: Antiviral activity against Chikungunya virus LR2006 OPY1 infected in African green monkey BGM cells after 24 hrs by luciferase reporter gene assay. In kind it is functional, organism-based.
Data set [5] concerns Chikungunya virus. The experiment in a line: Antiviral activity against Chikungunya virus SGP011 infected in African green monkey BGM cells after 24 hrs by luciferase reporter gene assay. In kind it is functional, organism-based.
The subject of data set [6] is Chikungunya virus. Briefly: Antiviral activity against Chikungunya virus 899 by qRT-PCR analysis. In kind it is functional, organism-based.
The test system of data set [7] is Chikungunya virus. The experiment in a line: Antiviral activity against Chikungunya virus 899 assessed as inhibition of virus-induced cytopathogenic effect measured on day 5 post infection by MTS/PMS based microscopic analysis. In kind it is functional, organism-based. The note with it: Chikungunya virus, 899, 120 h.
Data set [8] relates to Chikungunya virus. The experiment in a line: Antiviral activity against Chikungunya virus CNR20235 infected in buffalo green monkey BGM cells after 24 hrs by luciferase reporter gene assay. In kind it is functional, organism-based.
For data set [9], the system named is Chikungunya virus. Briefly: Antiviral activity against Chikungunya virus SGP011 infected in African green monkey BGM cells assessed as reduction in viral infectious progeny after 48 hrs by titration assay. In kind it is functional, organism-based.
Data set [10] is described as follows: Selectivity index, ratio of CC50 for human MRC5 cells to IC50 for Chikungunya virus LR2006 OPY1. In kind it is toxicity. The note with it: read-out: Ratio CC50/IC50.
The test system of data set [11] is Chikungunya virus. Briefly: Antiviral activity against Chikungunya virus LR2006 OPY1 infected in human MRC5 cells after 48 hrs by indirect immunofluorescence analysis. In kind it is functional, organism-based. As to conditions: LR2006 OPY1, MRC5, 48 h.
Data set [12] has as its system Chikungunya virus. Briefly: Antiviral activity against Chikungunya virus LR2006 OPY1 infected in human MRC5 cells after 30 mins by indirect immunofluorescence analysis. In kind it is functional, organism-based. As to conditions: LR2006 OPY1, MRC5, 0.5 h.
Data set [13] is described as follows: Cytotoxicity against African green monkey Vero cells assessed as reduction in cell viability after 18 hrs by neutral red staining-based microscopic analysis. The note with it: chlorocebus sabaeus.
The nature of data set [14]: Selectivity index, ratio of CC50 for African green monkey Vero cells to IC50 for Chikungunya virus LR2006 OPY1. In kind it is toxicity. The note with it: read-out: Ratio CC50/IC50.
Data set [15] can be described thus: Cytotoxicity against human MRC5 cells assessed as reduction in cell viability after 48 hrs by neutral red staining-based microscopic analysis.
For data set [16], the system named is Chikungunya virus. Briefly: Antiviral activity against Chikungunya virus LR2006 OPY1 infected in human MRC5 cells after 60 mins by indirect immunofluorescence analysis. The class given is functional, organism-based. The note with it: LR2006 OPY1, MRC5, 1 h.

In brackets after ≈: the same amount, converted by molar mass.

As usually defined, the EC50 is the concentration giving half of the maximal effect. On to `O=C(O[C@@H]1Cc2c(O)cc(O)cc2O[C@@H]1c1cc(O)c(O)c(O)c1)c1cc(O)c(O)c(O)c1` [EPIGALOCATECHIN GALLATE], for which, in data set [1], the EC50 is 6.54 µg/mL (≈ 14.3 µM).

Consider `CC(=O)O[C@@]12C[C@@H](C)[C@@]3(O)[C@@H](C=C(CO)C[C@]4(O)C(=O)C(C)=C[C@@H]34)[C@@H]1C2(C)C` [PROSTRATIN], for which the half-maximal effective concentration (EC50) in [2] was found to be 0.3 µM; in data set [3] it was 7.1 µM; in data set [4], 0.2 µM; in data set [5], 0.2 µM; in data set [6], 7.6 µM; in [7], 8 µM. For the same compound, the results for the EC50 in [8] and in [9] were 0.5 µM and 0.4 µM, respectively.

By IC50 is commonly meant the concentration that gives 50% inhibition. One may read the CC50 as the concentration at which the toxic effect on the cells reaches its halfway point. Regarding `CCOC(=O)c1c(CSc2ccccc2)n(C)c2cc(Br)c(O)c(CN(C)C)c12` [UMIFENOVIR], the selectivity ratio in data set [10] was found to be 36; in data set [14] it was 28. The values for the IC50 in data set [11], in data set [12] and in [16] were 12.2 µM, 23.1 µM and 31.7 µM, respectively. Moreover, the CC50 at 18 h in data set [13] turned out to be 680 µM. In data set [15], the CC50 at 48 h is 376 µM.

These data come from ChEMBL document CHEMBL4177563, “The medicinal chemistry of Chikungunya virus” (Bioorg Med Chem, 2017).
